From patent US7097977B1, “Target of anticancer agent” (priority 2000, dated 2006)

Tested on: rad51c, rad51d, xrcc2 and xrcc3 mutant DT40 cells
Assay: colony survival assay on methyl cellulose containing cisplatin
Assay type: cell-based, avian
Settings: continuous cisplatin in methyl cellulose plate; each mutant vs normal cells
Description: Further, the cells were plated on a plate of methyl cellulose containing cisplatin (manufactured by NIPPON KAYAKU CO., LTD.), and cultured in an atmosphere of 5% CO2 and 20% O2, at humidity of 100%, and 39° C. Thereafter, the colony survival assay was carried out, thereby evaluating sensitivity of the cells to cisplatin.
However, as shown in the panel (B) of FIG. 3, each mutant was about 8-fold more sensitive than normal cells to killing by cisplatin (cis-diamminedichloroplatinum-II), a DNA cross-linking agent that has been widely used in chemotherapy. The complementation of these mutants with human cDNAs corresponding to mutant genes in these mutants restored their cisplatin sensitivity to nearly normal levels.

N.N.[Cl][Pt][Cl] [cisplatin, cis-diamminedichloroplatinum-II] was tested, and the “sensitivity of each mutant to killing relative to normal cells” value was “about 8 fold”.
